According to US4399132A, “7-Beta-[alpha-syn-methoxyimino-alpha-(2-aminothiazol-4-yl)-aceta mido]-3-[(1,2,3-thiadiazol-5-ylthio)methyl]-3-cephem-4-carboxylic acid and C1 -C6 alkyl derivatives thereof” (American Cyanamid Company, priority 1981, dated 1983):
≈ marks a conversion by molar mass, not a printed value. Where two headings read alike, the source gives them in different places.

What was measured:
Test in all cases: Mueller-Hinton agar dilution method (MIC)
Type in all cases: cell-based
Acinetobacter sp. = settings: read-out: Minimal Inhibitory Concentration
Proteus rettgeri = settings: Providencia rettgeri, read-out: Minimal Inhibitory Concentration
Enterobacter cloacae = tested on: Enterobacter cloacae
Klebsiella pneumoniae = settings: for MIC: Klebsiella pneumoniae
Escherichia coli = settings: read-out: Minimal Inhibitory Concentration
Serratia marcescens = settings: read-out: Minimal Inhibitory Concentration
Staphylococcus aureus = tested on: Staphylococcus aureus
Enterococcus sp. = settings: for MIC: Enterococcus
Salmonella (arizona) = settings: read-out: Minimal Inhibitory Concentration
Salmonella sp. = settings: strain SSC-79-57, Table III, read-out: Minimal Inhibitory Concentration
Excerpt: (§1) The results appear in Tables I, II, and III.

Micrococcus luteus = settings: read-out: Minimal Inhibitory Concentration
Excerpt: as §1

Enterobacter aerogenes = settings: Klebsiella aerogenes
Pseudomonas aeruginosa = tested on: Pseudomonas aeruginosa
Proteus morganii = settings: Morganella morganii, read-out: Minimal Inhibitory Concentration
Klebsiella oxytoca = settings: read-out: Minimal Inhibitory Concentration
Citrobacter sp. = settings: read-out: Minimal Inhibitory Concentration
Providencia stuartti = settings: read-out: Minimal Inhibitory Concentration
[1] = ATCC25922, strain ATCC 25922, Table III

## CO/N=C(\C(=O)N[C@@H]1C(=O)N2C(C(=O)O)=C(CSc3snnc3C)CS[C@H]12)c1csc(N)n1 [Compound Ib(i), 7-β-[α-syn-methoxyimino-α-(2-aminothiazol-4-yl)acetamido]-3-[(1,2,3-thiadiazol-4-methyl-5-ylthio)methyl]-3-cephem-4-carboxylic acid]
Acinetobacter sp.; strain K-77-1, Table III
  MIC: 4 µg/mL (≈ 7.58 µM)
Acinetobacter sp.; strain STFD-79-17, Table III
  MIC: 32 µg/mL (≈ 60.6 µM)
Proteus rettgeri; strain N-76-1, Table III
  MIC: ≤ 0.03 µg/mL
Enterobacter cloacae; strain K-79-16, Table III, read-out: Minimal Inhibitory Concentration
  MIC: 0.25 µg/mL (≈ 0.474 µM)
Klebsiella pneumoniae; strain STFD-79-6, Table III, read-out: Minimal Inhibitory Concentration
  MIC: ≤ 0.03 µg/mL
Klebsiella pneumoniae; strain AD, Table III
  Minimal Inhibitory Concentration: ≤ .03 µg/mL
Klebsiella pneumoniae; strain SSC-78-1, Table III
  Minimal Inhibitory Concentration: ≤ .03 µg/mL
Escherichia coli; [1]
  MIC: ≤ 0.03 µg/mL
Escherichia coli; strain #311, Table III
  MIC: 0.06 µg/mL (≈ 0.114 µM)
Escherichia coli; strain ESS 22-31, Table III
  MIC: ≤ 0.03 µg/mL
Escherichia coli; strain STFD-79-20, Table III
  MIC: ≤ 0.03 µg/mL
Serratia marcescens; strain QHC-77-2, Table III
  MIC: 2 µg/mL (≈ 3.79 µM)
Serratia marcescens; strain TUL-78-15, Table III
  MIC: 2 µg/mL (≈ 3.79 µM)
Staphylococcus aureus; strain FU-79-19-2, Table III, read-out: Minimal Inhibitory Concentration
  MIC: 0.5 µg/mL (≈ 0.948 µM)
Staphylococcus aureus; strain SSC-79-18, Table III, read-out: Minimal Inhibitory Concentration
  MIC: 0.25 µg/mL (≈ 0.474 µM)
Staphylococcus aureus; strain SSC-80-15, Table III, read-out: Minimal Inhibitory Concentration
  MIC: 1 µg/mL (≈ 1.9 µM)
Staphylococcus aureus; strain Smith, Table III, read-out: Minimal Inhibitory Concentration
  MIC: 0.25 µg/mL (≈ 0.474 µM)
Enterococcus sp.; strain OSU-75-1, Table III, read-out: Minimal Inhibitory Concentration
  MIC: 8 µg/mL (≈ 15.2 µM)
Enterococcus sp.; strain SM-77-15, Table III
  Minimal Inhibitory Concentration: 8 µg/mL
Salmonella (arizona); strain QHC-77-3, Table III
  MIC: 0.06 µg/mL (≈ 0.114 µM)
Salmonella sp.
  MIC: 1 µg/mL (≈ 1.9 µM)
Micrococcus luteus; strain PCI 1001, Table III
  MIC: ≤ 0.03 µg/mL
Enterobacter aerogenes; strain STFD-79-14, Table III, read-out: Minimal Inhibitory Concentration
  MIC: 0.12 µg/mL (≈ 0.227 µM)
Pseudomonas aeruginosa; ATCC27853, strain ATCC 27853, Table III, read-out: Minimal Inhibitory Concentration
  MIC: 64 µg/mL (≈ 121 µM)
Pseudomonas aeruginosa; strain 12-4-4, Table III, read-out: Minimal Inhibitory Concentration
  MIC: 64 µg/mL (≈ 121 µM)
Pseudomonas aeruginosa; strain SSC-78-13, Table III, read-out: Minimal Inhibitory Concentration
  MIC: 64 µg/mL (≈ 121 µM)
Proteus morganii; strain K-79-25, Table III
  MIC: ≤ 0.03 µg/mL

## CC(=O)OCC1=C(C(=O)O)N2C(=O)[C@@H](NC(=O)Cc3cccs3)[C@H]2SC1 [II]
Acinetobacter sp.
  MIC: > 128 µg/mL
Proteus rettgeri
  MIC: > 128 µg/mL
Enterobacter cloacae; read-out: Minimal Inhibitory Concentration, strain K-79-16, Table I
  MIC: > 128 µg/mL
Enterobacter cloacae; read-out: Minimal Inhibitory Concentration, strain K-79-16, Table III
  MIC: > 128 µg/mL
Enterobacter cloacae; read-out: Minimal Inhibitory Concentration, strain K-81-46, Table I
  MIC: 64 µg/mL (≈ 161 µM)
Klebsiella pneumoniae; read-out: Minimal Inhibitory Concentration, strain AD, Table III
  MIC: 0.03 µg/mL (≈ 0.0757 µM)
Klebsiella pneumoniae; read-out: Minimal Inhibitory Concentration, strain SSC-78-1, Table I
  MIC: 1 µg/mL (≈ 2.52 µM)
Klebsiella pneumoniae; read-out: Minimal Inhibitory Concentration, strain SSC-78-1, Table III
  MIC: 1 µg/mL (≈ 2.52 µM)
Klebsiella pneumoniae; read-out: Minimal Inhibitory Concentration, strain STFD-79-6, Table III
  MIC: 0.5 µg/mL (≈ 1.26 µM)
Klebsiella pneumoniae; read-out: Minimal Inhibitory Concentration, strain STFD-79-16, Table I
  MIC: 1 µg/mL (≈ 2.52 µM)
Escherichia coli; [1]
  MIC: 2 µg/mL (≈ 5.04 µM)
Escherichia coli; strain #311, Table I
  MIC: 4 µg/mL (≈ 10.1 µM)
Escherichia coli; strain #311, Table III
  MIC: 4 µg/mL (≈ 10.1 µM)
Escherichia coli; strain ESS 22-31, Table III
  MIC: ≤ 0.03 µg/mL
Escherichia coli; strain K-81-14, Table I
  MIC: 64 µg/mL (≈ 161 µM)
Escherichia coli; strain STFD-79-20, Table I
  MIC: 4 µg/mL (≈ 10.1 µM)
Escherichia coli; strain STFD-79-20, Table III
  MIC: 2 µg/mL (≈ 5.04 µM)
Klebsiella oxytoca
  MIC: 2 µg/mL (≈ 5.04 µM)
Serratia marcescens
  MIC: > 128 µg/mL
Staphylococcus aureus; read-out: Minimal Inhibitory Concentration, strain FU-79-19-2, Table I
  MIC: 0.5 µg/mL (≈ 1.26 µM)
Staphylococcus aureus; read-out: Minimal Inhibitory Concentration, strain FU-79-19-2, Table III
  MIC: 0.12 µg/mL (≈ 0.303 µM)
Staphylococcus aureus; read-out: Minimal Inhibitory Concentration, strain SSC-79-18, Table I
  MIC: 0.25 µg/mL (≈ 0.631 µM)
Staphylococcus aureus; read-out: Minimal Inhibitory Concentration, strain SSC-79-18, Table III
  MIC: 0.12 µg/mL (≈ 0.303 µM)
Staphylococcus aureus; read-out: Minimal Inhibitory Concentration, strain SSC-80-15, Table I
  MIC: 0.5 µg/mL (≈ 1.26 µM)
Staphylococcus aureus; read-out: Minimal Inhibitory Concentration, strain SSC-80-15, Table III
  MIC: 0.5 µg/mL (≈ 1.26 µM)
Staphylococcus aureus; read-out: Minimal Inhibitory Concentration, strain Smith, Table I
  MIC: 0.12 µg/mL (≈ 0.303 µM)
Staphylococcus aureus; read-out: Minimal Inhibitory Concentration, strain Smith, Table III
  MIC: 0.03 µg/mL (≈ 0.0757 µM)
Enterococcus sp.; read-out: Minimal Inhibitory Concentration, strain OSU-75-1, Table I
  MIC: 32 µg/mL (≈ 80.7 µM)
Enterococcus sp.; read-out: Minimal Inhibitory Concentration, strain OSU-75-1, Table III
  MIC: 16 µg/mL (≈ 40.4 µM)
Enterococcus sp.; read-out: Minimal Inhibitory Concentration, strain SM-77-15, Table I
  MIC: 32 µg/mL (≈ 80.7 µM)
Enterococcus sp.; read-out: Minimal Inhibitory Concentration, strain SM-77-15, Table III
  MIC: 16 µg/mL (≈ 40.4 µM)
Salmonella (arizona)
  MIC: 2 µg/mL (≈ 5.04 µM)
Salmonella sp.
  MIC: 64 µg/mL (≈ 161 µM)
Micrococcus luteus
  MIC: 0.03 µg/mL (≈ 0.0757 µM)
Enterobacter aerogenes; read-out: Minimal Inhibitory Concentration, strain STFD-79-14, Table I
  MIC: 128 µg/mL (≈ 323 µM)
Enterobacter aerogenes; read-out: Minimal Inhibitory Concentration, strain STFD-79-14, Table III
  MIC: > 128 µg/mL
Citrobacter sp.
  MIC: 1 µg/mL (≈ 2.52 µM)
Pseudomonas aeruginosa; ATCC27853, read-out: Minimal Inhibitory Concentration
  MIC: > 128 µg/mL
Pseudomonas aeruginosa; read-out: Minimal Inhibitory Concentration
  MIC: > 128 µg/mL
Proteus morganii
  MIC: > 128 µg/mL
Providencia stuartti
  MIC: > 128 µg/mL
